Data as given in patent US7112586B2, “Substituted diamine derivatives useful as motilin antagonists” (Ortho-McNeil Pharmaceutical, Inc., priority 2000, dated 2006).

Columns and labels:
Motilin Receptor = biological target: T1, Motilin Receptor (Oryctolagus cuniculus, UniProt G1T803); test: Motilin receptor binding, rabbit colon membranes, 125I porcine motilin; set-up: Rabbit Colon % Inh / inhibition / % Inh (Rabbit colon): dose or concentration left out as unconfirmed; conditions: rabbit colon membranes; for inhibition: read-out: Rabbit Colon % Inh; for IC50: read-out: Rabbit Colon IC50
T1 construct: The muscle tissue was homogenized in 10 volumes of 50 mM Tris-Cl; from tissue; host or cells: rabbit colon smooth muscle, crude membrane homogenate

[1] = tested on: motilin induced contraction; test: Rabbit tissue bath procedure: inhibition of motilin induced contraction of duodenum segments; set-up: species or system New Zealand White rabbit; conditions: 3 nM porcine motilin induced contraction, read-out: Tissues IC50
Method: Rabbit Tissue Bath Procedure
One New Zealand White rabbit (Covance) of either sex was euthanized with an IV injection of Sleepaway. The duodenum was quickly excised, the lumen rinsed with saline to clean, and the tissue placed in cold, aerated (95% O2–5% CO2) Tyrodes buffer (NaCl 136.9 mM, KCl 2.7 mM, CaCl2 1.8 mM, MgCl2 1.04 mM, NaH2PO4 0.42 mM, NaHCO3 11.9 mM, Glucose 5.55 mM, pH 7.4). The duodenum, being kept moist at all times, was cleaned of any excess mesenteric tissue, and then cut into 3 cm segments starting at the proximal end. Sixteen tissue segments were usually prepared from each duodenum. These segments were tied on both ends with 3-0 silk suture (Ethicon). One end of the tissue was attached to an S-hook on a custom made glass support rod (Crown Glass Co., Somerville) and the rod plus tissue were placed in a 15 ml isolated tissue bath (Radnoti). The other end of the glass rod was attached to a Grass Force Displacement Transducer FT03. The tissue was maintained in room temperature Tyrodes buffer pH 7.4 and continually gassed with 95% O2— 5% CO2. The tissues were adjusted to 1.0 g resting tension and maintained at that tension throughout the equilibration period. An Ml2 Tissue Bath Computer was used to record and analyze data.
The tissues were washed twice during a 30 minute equilibration period and readjusted to 1 g resting tension as necessary. After equilibration the tissues were challenged with 3 μM Carbachol (Carbamoylcholine Chloride-Sigma). After maximal contraction was attained, the tissues were washed 3 times with Tyrodes. The tissues were allowed a 20 minute resting/equilibration period, during which time they were washed once and readjusted to 1 g resting tension. The tissues were challenged a second time with 3 μM Carbachol, and this contraction was considered as maximal, or 100% contraction. The tissues were washed 3 times, equilibrated for 10 minutes, washed again and readjusted to 1 g resting tension. Vehicle or test compound in 30% DMSO-50 mM HEPES was added directly to the bath and the tissues were incubated for 20 minutes. Test compounds and vehicle were run in duplicate.
The percent inhibition by test compound of the motilin induced contraction was calculated by first determining the ratio of the vehicle contractions with Motilin compared to the Carbachol contractions. This Tissue Adjustment Factor (TAF) was used to determine the value for the potential uninhibited contraction with Motilin for each tissue. The percent inhibition was then determined by dividing the actual Motilin contraction in treated tissues by the potential uninhibited contraction and subtracting this number from 1. IC50 values were determined by graphing results with Kaleidograph graphing program.

T1 sequence (G1T803 1-400): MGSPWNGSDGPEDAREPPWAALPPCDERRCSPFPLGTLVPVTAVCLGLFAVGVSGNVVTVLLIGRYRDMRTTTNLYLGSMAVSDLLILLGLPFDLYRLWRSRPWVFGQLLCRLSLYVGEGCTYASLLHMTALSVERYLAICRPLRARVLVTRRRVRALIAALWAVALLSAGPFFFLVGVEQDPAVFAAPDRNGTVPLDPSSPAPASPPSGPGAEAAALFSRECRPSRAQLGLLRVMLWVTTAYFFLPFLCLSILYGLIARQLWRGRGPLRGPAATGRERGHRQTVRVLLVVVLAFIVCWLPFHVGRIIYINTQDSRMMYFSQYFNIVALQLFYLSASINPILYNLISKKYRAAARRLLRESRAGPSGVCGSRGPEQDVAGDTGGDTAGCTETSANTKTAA

Row | Compound | inhibition (Motilin Receptor) [%] | IC50 (Motilin Receptor) [nM] | IC50 [1] [nM] | Rabbit Colon % Inh (Motilin Receptor) [%]
1 | O=C(Nc1ccccc1)N(CC1CCCC(N(Cc2cccc([N+](=O)[O-])c2)C(=O)C(Cl)(Cl)Cl)C1)c1cccc(OCCN2CCOCC2)c1 (centres unmarked) [compound 65] | 80 | 35 | 27 | –
2 | O=C(c1ccc(F)cc1)N(CC1CCCC(N(Cc2ccccn2)C(=O)C(Cl)(Cl)Cl)C1)c1cccc(OCCN2CCOCC2)c1 (centres unmarked) [compound 90] | 95 | 490 | > 300 | –
3 | O=C(c1ccc(F)cc1)N(CC1CCCC(N(Cc2cccc([N+](=O)[O-])c2)C(=O)C(Cl)(Cl)Cl)C1)c1cccc(OCCN2CCOCC2)c1 (centres unmarked) [compound 93] | 100 | 90 | 20.5 | –
4 | CCN(CC)CCOc1ccc(N(Cc2ccc(F)cc2)C(=O)CCCC(=O)N(CCc2ccccc2)Cc2ccccc2)cc1 [compound 195] | – | – | – | 62
5 | COc1cccc(CN(Cc2cccc(Cl)c2)C(=O)CCCC(=O)N(Cc2ccc(F)cc2)c2cccc(OCCN3CCCC3)c2)c1 [compound 198] | 100 | 107 | – | –
6 | O=C(CCCC(=O)N(Cc1ccc(F)cc1)c1cccc(OCCN2CCCC2)c1)N(CCc1ccccc1)Cc1cc(Cl)cc(Cl)c1 [compound 199] | 91 | 100 | – | –
7 | O=C(CCCC(=O)N(Cc1ccc(F)cc1)c1cccc(OCCN2CCCC2)c1)N(CCc1ccccc1)Cc1cccc(C(F)(F)F)c1 [compound 200] | 92 | 41 | – | –
8 | O=C(CCCC(=O)N(Cc1ccc(F)cc1)c1cccc(OCCN2CCCC2)c1)N(CCN1CCCC1)Cc1cccc(Cl)c1 [compound 203] | 98 | 240 | – | –
9 | O=C(CCCC(=O)N(Cc1ccc(F)cc1)c1cccc(OCCN2CCOCC2)c1)N(CCc1ccccc1)Cc1cccc([N+](=O)[O-])c1 [compound 205] | 76 | 100 | – | –
10 | COc1cccc(CN(Cc2cccc(Cl)c2)C(=O)CCCC(=O)N(Cc2ccc(F)cc2)c2cccc(OCCN3CCOCC3)c2)c1 [compound 206] | 60 | 770 | – | –
11 | Cc1ccc(OCCN2CCCC2)cc1N(Cc1ccc(F)cc1)C(=O)CCCC(=O)N(CCc1ccccc1)Cc1ccccc1 [compound 207] | 87 | 64 | – | –
12 | O=C(c1ccc(F)cc1)N(CC1CCCC(N(Cc2cccc([N+](=O)[O-])c2)C(=O)C(Cl)(Cl)Cl)C1)c1cccc(OCCN2CCCC2)c1 (centres unmarked) [compound 211] | 100 | 14 | – | –
13 | O=C(c1ccc(F)cc1)N(CC1CCCC(N(Cc2cccc(Cl)c2)C(=O)C(Cl)(Cl)Cl)C1)c1cccc(OCCN2CCCC2)c1 (centres unmarked) [compound 212] | 89 | 58 | – | –
14 | CC(C)(C)C(=O)N(Cc1ccccc1)[C@@H]1CCC[C@H](CN(C(=O)c2ccc(F)cc2)c2cccc(OCCN3CCCC3)c2)C1 [compound 214] | – | – | 24 | –
15 | Cc1c(OCCN2CCCC2)cccc1N(Cc1ccc(F)cc1)C(=O)CCCC(=O)N(CCc1ccccc1)Cc1cccc(C(=O)O)c1 [compound 215] | 100 | 84 | – | –
16 | O=C(Nc1ccccc1)N(CC1CCCC(N(Cc2cccc(Cl)c2)C(=O)C(Cl)(Cl)Cl)C1)c1cccc(OCCN2CCCC2)c1 (centres unmarked) [compound 223] | 100 | 41 | – | –
17 | O=C(Nc1ccccc1)N(CC1CCCC(N(Cc2ccccc2)C(=O)C(Cl)(Cl)Cl)C1)c1cccc(OCCN2CCCC2)c1 (centres unmarked) [compound 224] | 98 | 39 | – | –
18 | CC(C)(C)C(=O)N(Cc1ccccc1)[C@@H]1CCC[C@H](CN(C(=O)Nc2ccccc2)c2cccc(OCCN3CCCC3)c2)C1 [compound 225] | 93 | 21 | – | –
19 | CCN(CC)CCOc1cccc(N(CC2CCCC(N(Cc3cccc(Cl)c3)C(=O)C(C)(C)C)C2)C(=O)c2ccc(F)cc2)c1 (centres unmarked) [compound 233] | 89 | 170 | – | –
20 | Cc1c(OCCN2CCOCC2)cccc1N(Cc1ccc(F)cc1)C(=O)CCCC(=O)N(CCc1ccccc1)Cc1ccccc1 [compound 234] | 86 | 218 | – | –
21 | CC(C)(C)C(=O)N(Cc1cccc(Cl)c1)C1CCCC(CN(C(=O)c2ccc(F)cc2)c2cccc(OCCN3CCCCC3)c2)C1 (centres unmarked) [compound 237] | 96 | 168 | – | –
22 | O=C(c1ccc(F)cc1)N(CC1CCCC(N(Cc2cccc(Cl)c2)C(=O)C(Cl)(Cl)Cl)C1)c1cccc(OCCN2CCCCC2)c1 (centres unmarked) [compound 238] | 98 | 97 | – | –

Row | Compound | inhibition (Motilin Receptor) [%] | IC50 (Motilin Receptor) [nM] | IC50 [1] [nM] | Rabbit Colon % Inh (Motilin Receptor) [%]
23 | COc1cccc(CC(=O)N(Cc2cccc(Cl)c2)C2CCCC(CN(C(=O)c3ccc(F)cc3)c3cccc(OCCN4CCOCC4)c3)C2)c1 (centres unmarked) [compound 241] | – | – | – | 14
24 | O=C(c1ccc(F)cc1)N(CC1CCCC(N(Cc2cccc(Cl)c2)C(=O)CCC2CCCC2)C1)c1cccc(OCCN2CCOCC2)c1 (centres unmarked) [compound 242] | – | – | – | 36
25 | COc1ccc(CC(=O)N(Cc2cccc(Cl)c2)C2CCCC(CN(C(=O)c3ccc(F)cc3)c3cccc(OCCN4CCOCC4)c3)C2)cc1 (centres unmarked) [compound 243] | – | – | – | 35
26 | O=C(c1ccc(F)cc1)N(CC1CCCC(N(Cc2cccc(Cl)c2)C(=O)Cc2ccccc2)C1)c1cccc(OCCN2CCOCC2)c1 (centres unmarked) [compound 244] | – | – | – | 42
27 | COc1ccc(CC(=O)N(Cc2cccc(Cl)c2)C2CCCC(CN(C(=O)c3ccc(F)cc3)c3cccc(OCCN4CCOCC4)c3)C2)cc1OC (centres unmarked) [compound 245] | – | – | – | 40
28 | CC(C)(C)CC(=O)N(Cc1cccc(Cl)c1)C1CCCC(CN(C(=O)c2ccc(F)cc2)c2cccc(OCCN3CCOCC3)c2)C1 (centres unmarked) [compound 246] | – | – | – | 73
29 | O=C(c1ccc(F)cc1)N(CC1CCCC(N(Cc2cccc(Cl)c2)C(=O)Cc2cccs2)C1)c1cccc(OCCN2CCOCC2)c1 (centres unmarked) [compound 248] | 86 | 760 | – | –
30 | O=C(c1ccc(F)cc1)N(CC1CCCC(N(Cc2cccc(Cl)c2)C(=O)Cc2ccc(F)cc2)C1)c1cccc(OCCN2CCOCC2)c1 (centres unmarked) [compound 249] | – | – | – | 22
31 | CC(C)(C)c1ccc2c(c1)C(=O)N(C1CCCC(CN(C(=O)c3ccc(F)cc3)c3cccc(OCCN4CCOCC4)c3)C1)C2=O (centres unmarked) [compound 250] | – | – | – | 0
32 | O=C(c1ccc(F)cc1)N(CC1CCCC(N2C(=O)c3ccc(F)cc3C2=O)C1)c1cccc(OCCN2CCOCC2)c1 (centres unmarked) [compound 251] | – | – | – | 0
33 | O=C(c1ccc(F)cc1)N(CC1CCCC(N2C(=O)c3ccc4ccccc4c3C2=O)C1)c1cccc(OCCN2CCOCC2)c1 (centres unmarked) [compound 252] | – | – | – | 15
34 | Cc1ccc2c(c1)C(=O)N(C1CCCC(CN(C(=O)c3ccc(F)cc3)c3cccc(OCCN4CCOCC4)c3)C1)C2=O (centres unmarked) [compound 253] | – | – | – | 30
35 | O=C(c1ccc(F)cc1)N(CC1CCCC(N2C(=O)CC3(CCCC3)CC2=O)C1)c1cccc(OCCN2CCOCC2)c1 (centres unmarked) [compound 254] | – | – | – | 25
36 | O=C(c1ccc(F)cc1)N(CC1CCCC(N2C(=O)c3cc(Cl)c(Cl)cc3C2=O)C1)c1cccc(OCCN2CCOCC2)c1 (centres unmarked) [compound 255] | – | – | – | 22
37 | Cc1ccc2c(c1)C(=O)N(C1CCCC(CN(C(=O)c3ccc(F)cc3)c3cccc(OCCN4CCOCC4)c3)C1)C2=O (centres unmarked) [compound 256] | – | – | – | 27
38 | O=C(c1ccc(F)cc1)N(CC1CCCC(N2C(=O)c3ccccc3C2=O)C1)c1cccc(OCCN2CCOCC2)c1 (centres unmarked) [compound 257] | – | – | – | 0
39 | CC1(C)CC(=O)N(C2CCCC(CN(C(=O)c3ccc(F)cc3)c3cccc(OCCN4CCOCC4)c3)C2)C(=O)C1 (centres unmarked) [compound 258] | – | – | – | 34
40 | O=C(c1ccc(F)cc1)N(CC1CCCC(N2C(=O)c3ccc(Br)cc3C2=O)C1)c1cccc(OCCN2CCOCC2)c1 (centres unmarked) [compound 259] | – | – | – | 17
41 | CC(=O)Oc1ccc2c(c1)C(=O)N(C1CCCC(CN(C(=O)c3ccc(F)cc3)c3cccc(OCCN4CCOCC4)c3)C1)C2=O (centres unmarked) [compound 260] | – | – | – | 30
42 | O=C(c1ccc(F)cc1)N(CC1CCCC(N2C(=O)c3ccc4ccc(F)cc4c3C2=O)C1)c1cccc(OCCN2CCOCC2)c1 (centres unmarked) [compound 261] | – | – | – | 0
43 | O=C(c1ccc(F)cc1)N(CC1CCCC(N2C(=O)C3CC3C2=O)C1)c1cccc(OCCN2CCOCC2)c1 (centres unmarked) [compound 262] | – | – | – | 18
44 | O=C(c1ccc(F)cc1)N(CC1CCCC(N2C(=O)c3c(Cl)ccc(Cl)c3C2=O)C1)c1cccc(OCCN2CCOCC2)c1 (centres unmarked) [compound 263] | – | – | – | 11
